Data: the Kinase Knowledgebase extract (Sharma et al. 2016)

Key:
[1] = target: EGFR (Human), P00533 [T790M/L858R]; settings: nci-h1975
[2] = target: EGFR (Human), P00533 [T790M/L858R]; settings: nci-h1975; remark: listed apart in the source
[3] = target: EGFR (Human), P00533 [T790M/L858R]

Sequence of EGFR (Human), P00533 [T790M/L858R] (P00533 whole entry T790M/L858R, looked up): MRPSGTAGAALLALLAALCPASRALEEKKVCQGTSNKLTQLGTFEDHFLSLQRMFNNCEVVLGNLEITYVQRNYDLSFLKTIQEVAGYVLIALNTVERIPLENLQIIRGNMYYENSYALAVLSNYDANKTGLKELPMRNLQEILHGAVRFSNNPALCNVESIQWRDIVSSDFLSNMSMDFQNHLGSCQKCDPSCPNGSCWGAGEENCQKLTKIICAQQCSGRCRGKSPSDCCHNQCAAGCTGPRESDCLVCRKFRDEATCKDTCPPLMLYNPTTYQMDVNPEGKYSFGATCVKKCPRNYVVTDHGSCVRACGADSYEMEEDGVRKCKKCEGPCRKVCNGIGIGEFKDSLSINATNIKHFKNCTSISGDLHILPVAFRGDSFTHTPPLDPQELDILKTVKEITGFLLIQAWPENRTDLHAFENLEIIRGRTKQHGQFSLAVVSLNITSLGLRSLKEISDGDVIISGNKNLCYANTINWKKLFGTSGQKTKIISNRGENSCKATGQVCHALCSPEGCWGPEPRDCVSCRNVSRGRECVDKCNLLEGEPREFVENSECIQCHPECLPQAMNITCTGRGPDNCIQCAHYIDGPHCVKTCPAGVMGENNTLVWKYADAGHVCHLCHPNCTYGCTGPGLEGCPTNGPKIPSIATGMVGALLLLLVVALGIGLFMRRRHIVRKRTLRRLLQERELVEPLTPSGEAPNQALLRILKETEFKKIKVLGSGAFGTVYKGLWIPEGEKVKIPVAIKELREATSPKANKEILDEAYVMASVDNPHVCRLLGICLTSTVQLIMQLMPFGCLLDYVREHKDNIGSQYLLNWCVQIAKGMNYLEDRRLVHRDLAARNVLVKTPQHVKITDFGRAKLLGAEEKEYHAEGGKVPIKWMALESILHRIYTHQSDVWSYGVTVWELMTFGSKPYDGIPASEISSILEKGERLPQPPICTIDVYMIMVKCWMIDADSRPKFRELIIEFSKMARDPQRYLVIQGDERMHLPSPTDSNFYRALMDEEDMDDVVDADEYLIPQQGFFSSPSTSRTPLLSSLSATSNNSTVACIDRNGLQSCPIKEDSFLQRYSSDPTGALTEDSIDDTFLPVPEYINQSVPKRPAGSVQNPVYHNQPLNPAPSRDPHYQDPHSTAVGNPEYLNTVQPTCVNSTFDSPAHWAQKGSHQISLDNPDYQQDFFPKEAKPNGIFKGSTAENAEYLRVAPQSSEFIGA

In the case of `CCC(C)n1nc(N2CC[C@H](O)C2=O)c2cnc(Nc3ccnc(N4CC[C@@H](O)[C@@H](F)C4)n3)cc21` (stereo partly drawn), the EC50 [1] is reported as greater than 10000 nM and the EC50 [2] is reported as greater than 10000 nM.
`CC(C)n1nc(N2C[C@H](O)[C@@H](O)C2)c2cnc(Nc3ccnc(N4CCC(C)(O)CC4)n3)cc21` showed an EC50 [1] greater than 10000 nM and an EC50 [2] greater than 10000 nM.
For `CC(C)n1nc(NC2CNC(=O)C2)c2cnc(Nc3ccnc(N4CCC(C)(O)CC4)n3)cc21` (stereo not drawn), the EC50 [1] was greater than 10000 nM and the EC50 [2] was greater than 10000 nM.
Molecule `COCC1CN(c2nn(C(C)C)c3cc(Nc4ccnc(-c5cnn(S(=O)(=O)C6CC6)c5)n4)ncc23)C1` has a Ki [3] of 1 nM, an EC50 [1] of 20.9 nM and an EC50 [2] of 211 nM.
`CC(C)n1nc(N2CCC(C(N)=O)C2)c2cnc(Nc3ccnc(-c4cnn(S(=O)(=O)C5CC5)c4)n3)cc21` (stereo not drawn) was tested, and the Ki [3] was less than 0.6 nM and the EC50 [2] was 608 nM.
Work on `CC(C)n1nc(F)c2cnc(Nc3ccnc(-c4cnn(S(=O)(=O)C5CC5)c4)n3)cc21` yielded an EC50 [1] greater than 10000 nM and an EC50 [2] greater than 10000 nM.
Molecule `CCC(C)n1nc(N2CC[C@H](O)C2=O)c2cnc(Nc3ccnc(-c4cnn(S(=O)(=O)C5CC5)c4)n3)cc21` (stereo partly drawn) has an EC50 [2] of 696 nM.
For `CC(C)n1nc(N2CC(C(C)(C)C#N)C2)c2cnc(Nc3ccnc(-c4cnn(S(=O)(=O)C5CC5)c4)n3)cc21`, the EC50 [2] was 1380 nM.
In the case of `CC1COCC(C)N1c1nn(C(C)C)c2cc(Nc3ccnc(-c4cnn(S(=O)(=O)C5CC5)c4)n3)ncc12` (stereo not drawn), the EC50 [1] is reported as greater than 10000 nM and the EC50 [2] is reported as greater than 10000 nM.
In the case of `CC(C)n1nc(N2CC3(CN(CC(F)(F)F)C3)C2)c2cnc(Nc3ccnc(-c4cnn(S(=O)(=O)C5CC5)c4)n3)cc21`, the EC50 [2] is reported as 1140 nM.
In the case of `CC(C)n1nc(N2CC(N3CCOCC3)C2)c2cnc(Nc3ccnc(-c4cnn(S(=O)(=O)C5CC5)c4)n3)cc21`, the EC50 [2] is reported as 432 nM.
With `CC[C@@H](C)n1nc(N2CC[C@@H](O)C2)c2cnc(Nc3ccnc(N4CC[C@](C)(C(N)=O)C4)n3)cc21` the EC50 [2] was 4050 nM.
`CC(C)n1nc(N2CC(C#N)CC2=O)c2cnc(Nc3ccnc(N4CCC(C)(O)CC4)n3)cc21` (stereo not drawn) was tested, and the EC50 [2] was 1100 nM.
`CC(C)n1nc(N2CC[S+]([O-])CC2)c2cnc(Nc3ccnc(-c4cnn(S(=O)(=O)C5CC5)c4)n3)cc21` gave an EC50 [2] of 835 nM.
Molecule `CCN1CCN(c2nn(C(C)C)c3cc(Nc4ccnc(-c5cnn(S(=O)(=O)C6CC6)c5)n4)ncc23)CC1` has an EC50 [2] of 1010 nM.
